Like-named read-outs stand apart in the source and are kept apart here.
How the values were obtained:
[1] = tested on: presynaptic α2-adrenergic receptor (guinea-pig ileum); assay: Inhibition of the contraction of the isolated guinea-pig ileum induced by electrical stimulation (presynaptic α2-adrenergic agonist properties); conditions: for IC50: concentration that reduces by 50% the intensity of the muscle contraction, electrical stimulation
Source text: Stimulation of the guinea-pig ileum.
Longitudinal muscle fragments attached to an isometric force indicator are immersed in Tyrode's solution and are stretched with a force of 1 g (G. M. DREW, Brit. J. Pharmacol. 64, (1978), 293-300; M. ANDREJAK et al., Naunyn-Schmiedeberg's Arch. Pharmacol. 314, (1980), 83-87).
Electrical stimulation of the parasympathetic nerves associated with the ileum fragments causes a contraction of the muscle. This contraction is reduced in the presence of a presynaptic α2 -agonist and the magnitude by which the contraction is reduced depends on the concentration of the agonist used. This effect is antagonized by the simultaneous presence of an α2 -antagonist such as α-yohimbine.
The compounds to be studied have been tested at increasing concentrations ranging from 10^-10 to 10^-3 mole/l. The concentration (IC50 in mole/l) that reduces by 50% the intensity of the muscle contraction is determined.
Table I gives the IC50 concentrations (in mole/l) obtained for the compounds of the invention (except for compound 6, for which compound the IC30 concentration is given).

male NMRI mice = assay: Toxicity by means of Irwin's test, intraperitoneal; assay type: in vivo, mouse (NMRI); conditions: death of two out of three animals within 24 hours
Method: The toxicity of the compounds according to the present invention has been determined in male NMRI mice by means of Irwin's test (S. IRWIN, Psychopharmacologia, 13, (1968), 222-257). Progressive doses of the compound to be tested are administered intraperitoneally to groups of three mice until the lethal dose is reached (dose which causes the death of two out of three animals within 24 hours).
It can be seen from this Table that the compounds of the invention have a very low toxicity.

[2] = tested on: intraocular pressure of the treated eye; assay: Intraocular pressure variation in awake normotensive rabbits, treated eye; assay type: in vivo, rabbit (New Zealand White)
Method: the 1st column indicates the compound tested,
the 2nd column indicates the concentration of the compound, in percent (in weight per volume),
the 3rd, 4th, 5th, 6th and 7th columns indicate the variation in intraocular pressure (ΔP) expressed in percent, with respect to an animal treated with a collyrium containing no compound to be tested, measured after 30 minutes, 1, 2, 3 or 6 hours respectively.

[3] = tested on: mucous membrane of the treated eye (conjunctivae); assay: Effect on the mucous membrane of the treated eye (hypohemia); assay type: in vivo, rabbit (New Zealand White)
Source text: Hypohemia manifests itself by insufficient blood irrigation of the conjunctiva, which can result in irreversible local ischemias.

[4] = background of the patent, cited from earlier work
[5] = tested on: intraocular pressure of the contralateral eye
Method: All the doses tested are administered to three rabbits (weight 2-2.5 kg) of both sexes according to a "cross-over" experimental protocol in which each animal is also used in the control group. […] The intraocular pressure is measured tonometrically with a BIORAD pneumatonograph (DIGILAB MODULAR ONE) after local anesthesia using 2 drops of a 0.4% (in weight per volume) solution of oxybuprocaine hydrochloride.

pupil diameter = assay: Effect on the pupil diameter of the treated eye and of the contralateral eye; conditions: clonidine: ipsilateral eye at 0.1 and 0.5%; compounds of the invention: treated or contralateral eye at doses of Table II
Method: The pupil diameters are measured visually at the point of maximal vertical diameter, using a millimetric metal standard.

[6] = ocular or topical use unless stated

Method for heart rate: The compounds to be studied are administered as a solution in 30 microliters of sterile distilled water (collyrium) at concentrations ranging from 0 (reference) to 0.5% (in weight per volume).

## CC(c1c[nH]cn1)c1cccc(C(=N)N)c1O (single isomer, unassigned; (+)) [D, (+)-2-hydroxy-3-[1-(1H-imidazol-4-yl)ethyl]-benzenecarboximidamide]
[1]
  IC50: 3.9 nM
Male NMRI mice
  Lethal dose: 25 mg/kg
[2]; 0.01% w/v
  ΔP [30 min], variation in intraocular pressure: -14.1%
  ΔP [2 h], variation in intraocular pressure: -17.7%
  ΔP [6 h], variation in intraocular pressure: -15.1%

## CC(c1c[nH]cn1)c1cccc(C(=N)N)c1O (single isomer, unassigned; (-)) [E, (-)-2-hydroxy-3-[1-(1H-imidazol-4-yl)ethyl]-benzenecarboximidamide]
[1]
  IC50: 200 nM
Male NMRI mice
  Lethal dose: 248 mg/kg
[3]; 0.5%
  Hypohemia of the treated eye: do not induce hypohemia
[2]; 0.5% w/v
  ΔP [30 min], variation in intraocular pressure: -11.6%
  ΔP [1 h], variation in intraocular pressure: -12.6%
  ΔP [6 h], variation in intraocular pressure: -6.6%

## N=C(N)c1cccc(Cc2c[nH]cn2)c1O [A, 2-hydroxy-3-(1H-imidazol-4-ylmethyl)-benzenecarboximidamide]
[1]
  IC50: 62 nM
Male NMRI mice
  Lethal dose: > 216 mg/kg
[3]; 0.1%
  Hypohemia of the treated eye: do not induce hypohemia
[2]; 0.05% w/v
  ΔP [30 min], variation in intraocular pressure: -5.9%
  ΔP [2 h], variation in intraocular pressure: -18.6%
  ΔP [6 h], variation in intraocular pressure: -1.1%
[2]; 0.1% w/v
  ΔP [30 min], variation in intraocular pressure: -9.2%
  ΔP [2 h], variation in intraocular pressure: -21.2%
  ΔP [6 h], variation in intraocular pressure: -16.1%

## CNC(=N)c1cccc(Cc2c[nH]cn2)c1O [B, 2-hydroxy-3-(1H-imidazol-4-ylmethyl)-N-methyl-benzenecarboximidamide]
[1]
  IC50: 2500 nM
Male NMRI mice
  Lethal dose: 230 mg/kg
[2]; 0.5% w/v
  ΔP [30 min], variation in intraocular pressure: -5.5%
  ΔP [1 h], variation in intraocular pressure: -10.8%
  ΔP [2 h], variation in intraocular pressure: -13.3%
  ΔP [3 h], variation in intraocular pressure: -12.8%
  ΔP [6 h], variation in intraocular pressure: -7.6%

## N=C(NO)c1cccc(Cc2c[nH]cn2)c1O [C, N,2-dihydroxy-3-(1H-imidazol-4-ylmethyl)-benzenecarboximidamide]
[1]
  IC50: 140 nM
Male NMRI mice
  Lethal dose: 232 mg/kg

## CC(C)NC(=N)c1cccc(Cc2c[nH]cn2)c1O [F, 2-hydroxy-3-(1H-imidazol-4-ylmethyl)-N-(1-methylethyl)-benzenecarboximidamide]
[1]
  IC50: 6400 nM
Male NMRI mice
  Lethal dose: 155 mg/kg

## N=C(NN)c1cccc(Cc2c[nH]cn2)c1O [G, 2-hydroxy-3-(1H-imidazol-4-ylmethyl)-benzenecarboximidic acid hydrazide]
[1]; IC30 printed in the IC50 column
  IC30, inhibition of the contraction of the guinea-pig ileum: 2500 nM
Male NMRI mice
  Lethal dose: 416 mg/kg

## CC(=O)Nc1nnc(S(N)(=O)=O)s1 [acetazolamide]
[4]; carbonic anhydrase inhibitors, systemic administration
  Side-effects (in words): depression of the central nervous system, weight loss and, mainly, bone marrow hypofunction

## Clc1cccc(Cl)c1N=C1NCCN1 [clonidine]
[1]
  IC50: 17 nM
Heart rate; 0.01%, after 3 hours
  Slowing of the heart rate: 10.7%
Heart rate; 0.1%, after only 1 hour
  Slowing of the heart rate: 17.9%
[5]; 0.01%, after 2 hours
  ΔP in the contralateral eye: -9.5%
[5]; 0.01%, after 6 hours
  ΔP in the contralateral eye: -9.2%
[5]; 0.1%, after 2 hours
  ΔP in the contralateral eye: -10.2%
[5]; 0.1%, after 6 hours
  ΔP in the contralateral eye: +2.6%
[5]; 0.5%, after 2 hours
  ΔP in the contralateral eye: -26.3%
[5]; 0.5%, after 6 hours
  ΔP in the contralateral eye: +15%
[4]; [6]
  Side-effects (in words): mydriasis, as well as an initial phase of ocular hypertension (biphasic effect)
[3]; 0.01%, after 30 minutes
  Whitening of the conjunctivae: whitening of the conjunctivae is observed after 30 minutes
[3]; 0.1%, after 1 hour
  Whitening of the conjunctivae: this effect is still present after 1 hour
[2]
  Biphasic effect on intraocular pressure (in words): initially induces hypertension of the treated eye, which effect increases with the concentration of the product
[2]; 0.01% w/v
  ΔP [30 min], variation in intraocular pressure: +8.0%
  ΔP [2 h], variation in intraocular pressure: -8.8%
  ΔP [6 h], variation in intraocular pressure: -9.2%
[2]; 0.1% w/v
  ΔP [30 min], variation in intraocular pressure: +23.4%
  ΔP [2 h], variation in intraocular pressure: +36.2%
  ΔP [3 h], variation in intraocular pressure: +11.4%
[2]; 0.5% w/v
  ΔP [30 min], variation in intraocular pressure: +31.4%
  ΔP [2 h], variation in intraocular pressure: +39.4%
  ΔP [3 h], variation in intraocular pressure: +8.6%
Pupil diameter
  Change in the pupil diameter / mydriasis (in words): causes an important mydriasis of the ipsilateral eye

## CNCC(O)c1ccc(OC(=O)C(C)(C)C)c(OC(=O)C(C)(C)C)c1 (stereo not shown) [dipivalylepinephrine]
[4]; [6]
  Side-effects (in words): sensations of burning or irritation

From patent US5385927A, “Hydroxy-3-[1-(1H-imidazol-4-yl)alkyl]-benzenecarboximidamides and their use in treating glaucoma” (priority 1993, dated 1995)
